# Literature values in patent US20100029676A1 (priority 2005, published 2010).
# System: imatinib-resistant BCR-ABL mutants
# Conditions: number of mutants active / tested; Weisberg et al.
compound,measurement,value
Cc1cn(-c2cc(NC(=O)c3ccc(C)c(Nc4nccc(-c5cccnc5)n4)c3)cc(C(F)(F)F)c2)cn1 [AMN107],imatinib-resistant BCR-ABL mutants against which significantly active,32/33
